Test results reported in ChEMBL document CHEMBL4152375, “Compromising the plasma membrane as a secondary target in photodynamic therapy-induced necrosis” (Bioorg Med Chem, 2018).
The source made the active and inactive calls. The calls are words filed in the database; no cut-off is given here.

How the values were obtained:
[1] = Drug uptake in endosome of CHO cells at 1 uM incubated for overnight followed by compound washout measured by fluorescence microscopic analysis; assay type: ADME, subcellular, Cricetulus griseus; conditions: chinese hamster
[2] = Drug uptake in endosome of fluorescein-dextran-labelled CHO cells at 1 uM incubated for overnight followed by compound washout measured by fluorescence microscopic analysis; assay type: ADME, subcellular, Cricetulus griseus; conditions: chinese hamster
[3] = Drug uptake in lysosome of fluorescein-dextran-labelled CHO cells at 1 uM incubated for overnight followed by compound washout measured by fluorescence microscopic analysis; assay type: ADME, subcellular, Cricetulus griseus; conditions: chinese hamster
[4] = test system: CHO; assay: Induction of plasma membrane-mediated necrosis in CHO cells assessed as swelling of nuclei at 1 uM incubated for overnight followed by compound washout and subsequent 150W irradiation for 30 secs by fluorescence microscopic analysis; assay type: functional, cell-based; conditions: Cricetulus griseus
[5] = test system: CHO; assay: Induction of plasma membrane-mediated necrosis in EthD1-labelled CHO cells assessed as swelling of nuclei at 1 uM incubated for overnight followed by compound washout and subsequent 150W irradiation for 30 secs by fluorescence microscopic analysis; assay type: functional, cell-based; conditions: Cricetulus griseus
[6] = Dark toxicity in CHO cells at 1 uM incubated for overnight followed by compound washout by fluorescence microscopic analysis; assay type: cell-based, Cricetulus griseus; conditions: chinese hamster
[7] = test system: CHO; assay: Induction of plasma membrane-mediated necrosis in CHO cells at 1 uM incubated for overnight followed by compound washout with PBS 5% FBS and subsequent 150W irradiation for 30 secs by fluorescence microscopic analysis; assay type: functional, cell-based; conditions: Cricetulus griseus
[8] = test system: CHO; assay: Induction of plasma membrane-mediated necrosis in EthD1-labelled CHO cells at 1 uM incubated for two hrs at 4 degC followed by compound washout and subsequent 150W irradiation for 30 secs by fluorescence microscopic analysis; assay type: functional, cell-based; conditions: Cricetulus griseus

CN1CC2c3nc(c(-c4c(F)c(F)c(S[C@@H]5O[C@H](CO)[C@@H](O)[C@H](O)[C@H]5O)c(F)c4F)c4ccc([nH]4)c(-c4c(F)c(F)c(S[C@@H]5O[C@H](CO)[C@@H](O)[C@H](O)[C@H]5O)c(F)c4F)c4nc(c(-c5c(F)c(F)c(S[C@@H]6O[C@H](CO)[C@@H](O)[C@H](O)[C@H]6O)c(F)c5F)c5ccc([nH]5)c3-c3c(F)c(F)c(S[C@@H]5O[C@H](CO)[C@@H](O)[C@H](O)[C@H]5O)c(F)c3F)C=C4)C2C1 (stereo partly drawn)
Drug uptake [1]: Active
Drug uptake [2]: Active
Drug uptake [3]: Active
Activity [4]: Active
Activity [5]: Active
Activity [6]: Non-Toxic
Activity [7]: inactive
Activity [8]: Active
